Legend:
panel of 442 kinases [1] = target: T1, panel of 442 kinases (Homo sapiens, UniProt Q9Y243); assay type: binding; design: KINOMEscan: ABL1(F317L)-phosphorylated / KINOMEscan: ABL1(H396P)-nonphosphorylated / KINOMEscan: ABL1(H396P)-phosphorylated / KINOMEscan: ABL1(M351T)-phosphorylated / KINOMEscan: ABL1(T315I)-phosphorylated / KINOMEscan: ABL1-nonphosphorylated / KINOMEscan: ABL1-phosphorylated / KINOMEscan: ACVR2A / KINOMEscan: ACVR2B / KINOMEscan: ADCK3 / KINOMEscan: ADCK4 / KINOMEscan: AKT1 / KINOMEscan: AKT3 / KINOMEscan: ALK / KINOMEscan: ARK5 / KINOMEscan: AURKA / KINOMEscan: AURKC / KINOMEscan: BIKE / KINOMEscan: BMPR1A / KINOMEscan: BMPR1B / KINOMEscan: BMX / KINOMEscan: BRK / KINOMEscan: BRSK1 / KINOMEscan: BRSK2 / KINOMEscan: CAMK1 / KINOMEscan: CAMK1D / KINOMEscan: CAMK1G / KINOMEscan: CAMK2A / KINOMEscan: CAMK2B / KINOMEscan: AAK1 / KINOMEscan: CAMK2D / KINOMEscan: CAMK2G / KINOMEscan: ABL1(F317I)-nonphosphorylated / KINOMEscan: ABL1(F317I)-phosphorylated / KINOMEscan: ABL1(F317L)-nonphosphorylated: unit: % Ctrl; details: Compound Concentration 10 µM
T1 construct: purchased KINOMEscan
T1 sequence (Q9Y243 whole entry): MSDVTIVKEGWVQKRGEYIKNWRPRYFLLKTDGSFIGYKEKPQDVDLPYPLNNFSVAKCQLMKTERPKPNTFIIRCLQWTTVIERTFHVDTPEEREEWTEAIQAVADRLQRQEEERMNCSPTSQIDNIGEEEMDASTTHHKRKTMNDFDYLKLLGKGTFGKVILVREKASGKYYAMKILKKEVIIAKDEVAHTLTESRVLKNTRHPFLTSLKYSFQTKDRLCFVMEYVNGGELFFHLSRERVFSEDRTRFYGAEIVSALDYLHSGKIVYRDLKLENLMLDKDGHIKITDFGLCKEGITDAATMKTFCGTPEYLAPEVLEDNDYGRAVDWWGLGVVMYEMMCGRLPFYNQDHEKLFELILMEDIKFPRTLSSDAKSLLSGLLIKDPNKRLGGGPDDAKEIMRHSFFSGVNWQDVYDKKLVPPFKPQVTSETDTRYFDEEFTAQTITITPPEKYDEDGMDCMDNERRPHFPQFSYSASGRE
Text: (§1) We assessed the selectivity of members of this scaffold using the KINOMEscan methodology across a near comprehensive panel of 442 kinases [[18,27]].

panel of 442 kinases [2] = target: T2, panel of 442 kinases (Homo sapiens, UniProt Q99683); assay type: binding; design: KINOMEscan: ABL1(F317L)-phosphorylated / KINOMEscan: ABL1(H396P)-nonphosphorylated / KINOMEscan: ABL1(H396P)-phosphorylated / KINOMEscan: ABL1(M351T)-phosphorylated / KINOMEscan: ABL1(T315I)-phosphorylated / KINOMEscan: ABL1-nonphosphorylated / KINOMEscan: ABL1-phosphorylated / KINOMEscan: ACVR2A / KINOMEscan: ACVR2B / KINOMEscan: ADCK3 / KINOMEscan: ADCK4 / KINOMEscan: AKT1 / KINOMEscan: AKT3 / KINOMEscan: ALK / KINOMEscan: ARK5 / KINOMEscan: AURKA / KINOMEscan: AURKC / KINOMEscan: BIKE / KINOMEscan: BMPR1A / KINOMEscan: BMPR1B / KINOMEscan: BMX / KINOMEscan: BRK / KINOMEscan: BRSK1 / KINOMEscan: BRSK2 / KINOMEscan: CAMK1 / KINOMEscan: CAMK1D / KINOMEscan: CAMK1G / KINOMEscan: CAMK2A / KINOMEscan: CAMK2B / KINOMEscan: AAK1 / KINOMEscan: CAMK2D / KINOMEscan: CAMK2G / KINOMEscan: ABL1(F317I)-nonphosphorylated / KINOMEscan: ABL1(F317I)-phosphorylated / KINOMEscan: ABL1(F317L)-nonphosphorylated: unit: % Ctrl; details: Compound Concentration 10 µM
T2 construct: purchased KINOMEscan
T2 sequence (Q99683 1-1374): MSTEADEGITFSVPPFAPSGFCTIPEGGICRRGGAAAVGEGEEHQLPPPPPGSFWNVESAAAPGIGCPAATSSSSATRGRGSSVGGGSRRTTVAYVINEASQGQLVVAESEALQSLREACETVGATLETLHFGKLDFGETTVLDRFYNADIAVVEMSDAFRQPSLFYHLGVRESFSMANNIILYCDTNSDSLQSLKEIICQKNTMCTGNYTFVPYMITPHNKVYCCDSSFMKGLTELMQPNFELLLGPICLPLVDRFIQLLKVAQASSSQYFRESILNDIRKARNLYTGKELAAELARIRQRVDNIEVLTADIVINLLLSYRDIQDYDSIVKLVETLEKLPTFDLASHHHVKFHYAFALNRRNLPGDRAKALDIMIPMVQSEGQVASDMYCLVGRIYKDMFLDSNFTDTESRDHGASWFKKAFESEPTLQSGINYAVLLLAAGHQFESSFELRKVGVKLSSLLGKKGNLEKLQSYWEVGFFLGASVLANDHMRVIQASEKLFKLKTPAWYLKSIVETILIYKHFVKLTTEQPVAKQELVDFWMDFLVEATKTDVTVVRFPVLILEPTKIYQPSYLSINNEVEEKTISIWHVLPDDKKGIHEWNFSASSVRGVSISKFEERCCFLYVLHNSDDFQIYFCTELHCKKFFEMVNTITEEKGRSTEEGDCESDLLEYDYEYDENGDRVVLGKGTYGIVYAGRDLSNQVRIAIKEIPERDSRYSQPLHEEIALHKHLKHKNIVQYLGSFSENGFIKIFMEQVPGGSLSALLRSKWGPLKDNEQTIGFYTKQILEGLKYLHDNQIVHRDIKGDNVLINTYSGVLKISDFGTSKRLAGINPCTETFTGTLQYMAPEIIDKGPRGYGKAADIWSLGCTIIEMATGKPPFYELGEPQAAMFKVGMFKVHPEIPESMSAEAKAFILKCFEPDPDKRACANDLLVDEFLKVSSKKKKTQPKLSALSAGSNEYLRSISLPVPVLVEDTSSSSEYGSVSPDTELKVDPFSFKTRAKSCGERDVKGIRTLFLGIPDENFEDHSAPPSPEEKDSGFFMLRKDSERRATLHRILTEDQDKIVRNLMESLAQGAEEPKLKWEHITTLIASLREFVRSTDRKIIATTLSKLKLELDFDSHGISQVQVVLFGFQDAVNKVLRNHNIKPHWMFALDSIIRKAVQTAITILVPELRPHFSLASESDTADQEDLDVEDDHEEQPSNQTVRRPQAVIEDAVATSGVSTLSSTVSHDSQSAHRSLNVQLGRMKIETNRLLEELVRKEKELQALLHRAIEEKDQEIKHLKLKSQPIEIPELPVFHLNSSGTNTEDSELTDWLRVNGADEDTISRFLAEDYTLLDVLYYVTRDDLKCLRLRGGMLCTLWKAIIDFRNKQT
Text: as §1

COc1cc(C(=O)N2CCC(N3CCN(C)CC3)CC2)ccc1Nc1ncc2c(n1)N(C1CCCC1)c1ccccc1C(=O)N2C [Compound 25, 11-cyclopentyl-2-((2-methoxy-4-(4-(4-methylpiperazin-1-yl)piperidine-1-carbonyl)phenyl)amino)-5-methyl-5H-benzo[e]pyrimido[5,4-b][1,4]diazepin-6(11H)-one]
KINOMEscan: AKT3 (panel of 442 kinases [1]): 100
KINOMEscan: ASK1 (panel of 442 kinases [2]): 100

CCOc1cc(C(=O)N2CCC(N3CCN(C)CC3)CC2)ccc1Nc1ncc2c(n1)N(C1CCCC1)c1ccccc1C(=O)N2C [Compound 26]
KINOMEscan: AKT3 (panel of 442 kinases [1]): 84
KINOMEscan: ASK1 (panel of 442 kinases [2]): 100

COc1cc(C(=O)N2CCC(N3CCN(C)CC3)CC2)ccc1Nc1ncc2c(n1)N(C)c1ccccc1C(=O)N2C [15 (LRRK2-IN-1)]
KINOMEscan: AKT3 (panel of 442 kinases [1]): 100
KINOMEscan: ASK1 (panel of 442 kinases [2]): 100

From publication PMC3914206
